# Assay results as given in US10563272B2, “Compositions comprising Metarhizium fungi and use thereof as a pesticide” (Cotton Research and Development Corporation, priority 2015, dated 2020).
# Experiments:
# [1] = test system: Bemisia tabaci b-type adults and nymphs; assay: Rate trial on Bollgard II cotton, Norwood 2011-2012 (Example 11): silverleaf whiteflies; format: in vivo; conditions: DAT 511 250 mL, 500 mL, 1 L/ha; Pyriproxyfen 500 mL/ha; P<0.001
# Experimental: This trial was conducted on an irrigated Bollgard II® cotton crop on a commercial cotton farm at Norwood near Moree, NSW, in 2011-2012.
# (§1) The following treatments were evaluated against Bemisia tabaci b-type adults and nymphs: • 1. 250 mL/ha DAT 511 spore in oil (1×10^7 spores/ml); • 2. 500 mL/ha DAT 511 spore in oil (1×10^7 spores/ml); • 3. 1 L/ha DAT 511 spore in oil (1×10^7 spores/ml); • 4. 500 mL/ha Pyriproxyfen (conventional insecticide); and • 5. Unsprayed (control).
# (§2) The treatment plots were arranged in a randomized complete block design with three replicates per treatment. Each replicated plot measured 40 m wide (40 rows) and 90 m long.
# Foliar applications of each treatment were made on 28 Feb. and 20 Mar. 2012. […] On each sampling date, 20 plants from each replicate were randomly selected and B. tabaci adults on one leaf from the 5th node below the terminal of each plant were counted. […]
# (§3) In the case of nymphs, one leaf from the 5th node below the terminal of each of the 20 plants was cut, removed and carefully placed individually in a plastic bag. The plastic bags containing the leaves were taken to the laboratory and the B. tabaci nymphs were counted under a binocular microscope. Data of both adults and nymphs were expressed as numbers per leaf per treatment.
# [2] = test system: Bemisia tabaci b-type adults and nymphs; assay: Rate trial on Bollgard cotton, Cooinda St George 2011-2012 (Example 13): silverleaf whiteflies; format: in vivo; conditions: P<0.001; FIG. 50
# Experimental: This trial was conducted on an irrigated Bollgard cotton crop on a commercial cotton farm at Cooinda, St George, Queensland, in 2011-2012.
# as §1, §2
# Foliar applications of each treatment were made on 12 Mar. and 26 Mar. 2012. […] On each sampling date, 20 plants from each replicate were randomly selected and B. tabaci adults on one leaf from the 5th node below the terminal of each plant were counted. […]
# as §3
structure (smiles),measurement,setting,value
CC(COc1ccc(Oc2ccccc2)cc1)Oc1ccccn1 (centres unmarked) [Pyriproxyfen],SLW adults and nymphs versus the unsprayed,[1],fewer
same,silverleaf whitefly adults and nymphs versus unsprayed plots,[2],Significantly fewer
